IC50 data for 35 compounds are collected here from patent US10202339B2, “Therapeutic compounds and compositions” (AGIOS PHARMACEUTICALS, INC., priority 2012, dated 2019).

Sequence of IDH2 R140Q (P48735 40-452 R140Q): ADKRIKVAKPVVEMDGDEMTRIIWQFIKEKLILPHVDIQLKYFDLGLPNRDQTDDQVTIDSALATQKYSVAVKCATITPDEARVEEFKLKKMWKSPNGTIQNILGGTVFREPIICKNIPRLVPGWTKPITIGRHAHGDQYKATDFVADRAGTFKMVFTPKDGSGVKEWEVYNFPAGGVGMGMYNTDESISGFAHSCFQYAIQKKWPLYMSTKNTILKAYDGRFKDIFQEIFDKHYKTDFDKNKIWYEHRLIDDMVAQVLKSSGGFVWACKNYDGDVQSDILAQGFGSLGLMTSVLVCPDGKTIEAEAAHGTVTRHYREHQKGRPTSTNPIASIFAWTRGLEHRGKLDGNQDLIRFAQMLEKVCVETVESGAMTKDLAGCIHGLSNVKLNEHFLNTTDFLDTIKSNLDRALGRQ

The assay addresses IDH2 R140Q (Homo sapiens (Human), UniProt P48735, R140Q). Put plainly: IDH2 R140Q enzymatic cofactor depletion assay (diaphorase/resazurin). It is filed as biochemical. The following applies: IDH2 R140Q enzyme, one hour preincubation with compound, one hour reaction; read-out: Enz R140Q. On the procedure: The reaction was terminated by the addition of a second enzyme, diaphorase, and a corresponding substrate, resazurin. Diaphorase reduces resazurin to the highly fluorescent resorufin with the concomitant oxidation of NADPH to NADP, both halting the IDH2 reaction by depleting the available cofactor pool and facilitating quantitation of the amount of cofactor remaining after a specific time period through quantitative production of an easily detected fluorophore.
The compound was then incubated for one hour at room temperature with the enzyme; before starting the IDH2 reaction with the addition of 10 μl of substrate mix containing 50 μM NADPH and 6.3 mM α-KG in the buffer described above. After a further one hour of incubation at room temperature, the reaction was halted and the remaining NADPH measured through conversion of resazurin to resorufin by the addition of 25 μl Stop Mix (36 μg/ml diaphorase enzyme and 60 μM resazurin; in buffer). After one minute of incubation the plate was read on a plate reader at Ex544/Em590.
Turning to `O=C(Nc1cnccc1Cl)Nc1cc(S(=O)(=O)NCC(F)(F)F)ccc1-c1ccccc1` [Compound 85, 2-(3-(4-chloropyridin-3-yl)ureido)-N-(2,2,2-trifluoroethyl)-[1,1′-biphenyl]-4-sulfonamide], the IC50 was in the range of 0.1 to 1 µM.

With `O=C(Nc1cccc(F)n1)Nc1cc(S(=O)(=O)NCC(F)(F)F)ccc1-c1ccccc1` [Compound 86, 2-(3-(6-fluoropyridin-2-yl)ureido)-N-(2,2,2-trifluoroethyl)-[1,1′-biphenyl]-4-sulfonamide], the IC50 lay within 0.1 to 1 µM.

Turning to `O=C(Nc1cc(C(F)(F)F)ccn1)Nc1cc(S(=O)(=O)NCC(F)(F)F)ccc1-c1ccccc1` [Compound 87, N-(2,2,2-trifluoroethyl)-2-(3-(4-(trifluoromethyl)pyridin-2-yl)ureido)-[1,1′-biphenyl]-4-sulfonamide], the IC50 was in the range of 0.1 to 1 µM.

Consider `O=C(Nc1cccc(Cl)c1)Nc1cc(S(=O)(=O)NCC(F)(F)F)ccc1-c1ccccc1` [Compound 88, 2-(3-(3-chlorophenyl)ureido)-N-(2,2,2-trifluoroethyl)-[1,1′-biphenyl]-4-sulfonamide], for which the IC50 fell in the range of 0.1 to 1 µM.

Regarding `O=C(Nc1cc(F)cc(F)c1)Nc1cc(S(=O)(=O)NCC(F)(F)F)ccc1-c1ccccc1` [Compound 89, 2-(3-(3,5-difluorophenyl)ureido)-N-(2,2,2-trifluoroethyl)-[1,1′-biphenyl]-4-sulfonamide], the IC50 is 0.1 to 1 µM.

For `O=C(Nc1cc(F)ccc1Cl)Nc1cc(S(=O)(=O)NCC(F)(F)F)ccc1-c1ccccc1` [Compound 90, 2-(3-(2-chloro-5-fluorophenyl)ureido)-N-(2,2,2-trifluoroethyl)-[1,1′-biphenyl]-4-sulfonamide], the IC50 was in the range of 0.1 to 1 µM.

Regarding `Cc1cc(NC(=O)Nc2cc(S(=O)(=O)NCC(F)(F)F)ccc2-c2ccccc2)nn1C` [Compound 91, 2-(3-(1,5-dimethyl-1H-pyrazol-3-yl)ureido)-N-(2,2,2-trifluoroethyl)-[1,1′-biphenyl]-4-sulfonamide], the IC50 is 0.1 to 1 µM.

Take `CC(C)n1ccc(NC(=O)Nc2cc(S(=O)(=O)NCC(F)(F)F)ccc2-c2ccccc2)n1` [Compound 92, 2-(3-(1-isopropyl-1H-pyrazol-3-yl)ureido)-N-(2,2,2-trifluoroethyl)-[1,1′-biphenyl]-4-sulfonamide]: the IC50 fell in the range of 0.1 to 1 µM.

On to `CCn1ccc(NC(=O)Nc2cc(S(=O)(=O)NCC(F)(F)F)ccc2-c2ccccc2)n1` [Compound 93, 2-(3-(1-ethyl-1H-pyrazol-3-yl)ureido)-N-(2,2,2-trifluoroethyl)-[1,1′-biphenyl]-4-sulfonamide], for which the IC50 was in the range of 0.1 to 1 µM.

As to `O=C(Nc1cncc(C(F)(F)F)c1)Nc1cc(S(=O)(=O)NCC(F)(F)F)ccc1-c1ccccc1` [Compound 94, N-(2,2,2-trifluoroethyl)-2-(3-(5-(trifluoromethyl)pyridin-3-yl)ureido)-[1,1′-biphenyl]-4-sulfonamide], the IC50 was in the range of 0.1 to 1 µM.

For `O=C(Nc1cc(S(=O)(=O)NCC(F)(F)F)ccc1-c1ccccc1)Nc1ncccc1Cl` [Compound 95], the IC50 lay within 1 to 10 µM.

As for `Cc1cc(NC(=O)Nc2cc(S(=O)(=O)NCC(F)(F)F)ccc2-c2ccccc2)n(C)n1` [Compound 96], the IC50 is 1 to 10 µM.

As to `O=C(Nc1cc(S(=O)(=O)NCC(F)(F)F)ccc1-c1ccccc1)Nc1cccnc1F` [Compound 97, 2-(3-(2-fluoropyridin-3-yl)ureido)-N-(2,2,2-trifluoroethyl)-[1,1′-biphenyl]-4-sulfonamide], the IC50 lay within 0.1 to 1 µM.

For the compound `O=C(Nc1cncc(F)c1)Nc1cc(S(=O)(=O)NCC(F)(F)F)ccc1-c1ccccc1` [Compound 98, 2-(3-(5-fluoropyridin-3-yl)ureido)-N-(2,2,2-trifluoroethyl)-[1,1′-biphenyl]-4-sulfonamide], the IC50 fell in the range of 0.1 to 1 µM.

`O=C(Nc1cc(S(=O)(=O)NCC(F)(F)F)ccc1-c1ccccc1)Nc1ncccc1F` [Compound 99, 2-(3-(3-fluoropyridin-2-yl)ureido)-N-(2,2,2-trifluoroethyl)-[1,1′-biphenyl]-4-sulfonamide]: the IC50 lay within 1 to 10 µM.

Regarding `O=C(Nc1ncc(Cl)s1)Nc1cc(S(=O)(=O)NCC(F)(F)F)ccc1-c1ccccc1` [Compound 100, 2-(3-(5-chlorothiazol-2-yl)ureido)-N-(2,2,2-trifluoroethyl)-[1,1′-biphenyl]-4-sulfonamide], the IC50 is 0.1 to 1 µM.

Take `Cc1nc(NC(=O)Nc2cc(S(=O)(=O)NCC(F)(F)F)ccc2-c2ccccc2)sc1Cl` [Compound 101, 2-(3-(5-chloro-4-methylthiazol-2-yl)ureido)-N-(2,2,2-trifluoroethyl)-[1,1′-biphenyl]-4-sulfonamide]: the IC50 lay in the range of 0.1 to 1 µM.

In the case of `Cc1coc(NC(=O)Nc2cc(S(=O)(=O)NCC(F)(F)F)ccc2-c2ccccc2)n1` [Compound 102, 2-(3-(4-methyloxazol-2-yl)ureido)-N-(2,2,2-trifluoroethyl)-[1,1′-biphenyl]-4-sulfonamide], the IC50 was 0.1 to 1 µM.

In the case of `O=C(Nc1nc(C(F)(F)F)cs1)Nc1cc(S(=O)(=O)NCC(F)(F)F)ccc1-c1ccccc1` [Compound 103, N-(2,2,2-trifluoroethyl)-2-(3-(4-(trifluoromethyl)thiazol-2-yl)ureido)-[1,1′-biphenyl]-4-sulfonamide], the IC50 lay in the range of 0.1 to 1 µM.

Take `O=C(Nc1cc(S(=O)(=O)NCC(F)(F)F)ccc1-c1ccccc1)Nc1ncccc1C(F)(F)F` [Compound 104, N-(2,2,2-trifluoroethyl)-2-(3-(3-(trifluoromethyl)pyridin-2-yl)ureido)-[1,1′-biphenyl]-4-sulfonamide]: the IC50 fell in the range of 1 to 10 µM.

For `O=C(Nc1nccc(Cl)n1)Nc1cc(S(=O)(=O)NCC(F)(F)F)ccc1-c1ccccc1` [Compound 105, 2-(3-(4-chloropyrimidin-2-yl)ureido)-N-(2,2,2-trifluoroethyl)-[1,1′-biphenyl]-4-sulfonamide], the IC50 lay within 0.1 to 1 µM.

Regarding `O=C(Nc1nccc(C(F)(F)F)n1)Nc1cc(S(=O)(=O)NCC(F)(F)F)ccc1-c1ccccc1` [Compound 106, N-(2,2,2-trifluoroethyl)-2-(3-(4-(trifluoromethyl)pyrimidin-2-yl)ureido)-[1,1′-biphenyl]-4-sulfonamide], the IC50 is 0.1 to 1 µM.

With `Cc1ccnc(NC(=O)Nc2cc(S(=O)(=O)NCC(F)(F)F)ccc2-c2ccccc2)n1` [Compound 107, 2-(3-(4-methylpyrimidin-2-yl)ureido)-N-(2,2,2-trifluoroethyl)-[1,1′-biphenyl]-4-sulfonamide], the IC50 lay in the range of 1 to 10 µM.

Regarding `O=C(Nc1cc(S(=O)(=O)NCC(F)(F)F)ccc1-c1ccccc1)n1ccc2ccccc21` [Compound 108, N-(4-(N-(2,2,2-trifluoroethyl)sulfamoyl)-[1,1′-biphenyl]-2-yl)-1H-indole-1-carboxamide], the IC50 lay in the range of 0.1 to 1 µM.

As for `O=C(Nc1cccc(C(F)(F)F)c1)Nc1cc(S(=O)(=O)Nc2ccccc2)ccc1-c1ccccn1` [Compound 109], the IC50 fell in the range of 1 to 10 µM.

On to `CC(=O)Nc1cccc(-c2ccc(S(=O)(=O)Nc3ccccc3)cc2NC(=O)Nc2cccc(C(F)(F)F)c2)c1` [Compound 110], for which the IC50 lay within 1 to 10 µM.

Take `CNS(=O)(=O)c1ccc(-c2ccsc2)c(NC(=O)Nc2cccc(C(F)(F)F)c2)c1` [Compound 111, N-methyl-4-(thiophen-3-yl)-3-(3-(3-(trifluoromethyl)phenyl)ureido)benzenesulfonamide]: the IC50 was in the range of 0.1 to 1 µM.

`CCNS(=O)(=O)c1ccc(-c2ccsc2)c(NC(=O)Nc2cccc(C(F)(F)F)c2)c1` [Compound 112, N-ethyl-4-(thiophen-3-yl)-3-(3-(3-(trifluoromethyl)phenyl)ureido)benzenesulfonamide]: the IC50 fell in the range of 0.1 to 1 µM.

Regarding `CCCNS(=O)(=O)c1ccc(-c2ccsc2)c(NC(=O)Nc2cccc(C(F)(F)F)c2)c1` [Compound 113, N-propyl-4-(thiophen-3-yl)-3-(3-(3-(trifluoromethyl)phenyl)ureido)benzenesulfonamide], the IC50 was 0.1 to 1 µM.

In the case of `CCCCNS(=O)(=O)c1ccc(-c2ccsc2)c(NC(=O)Nc2cccc(C(F)(F)F)c2)c1` [Compound 114, N-butyl-4-(thiophen-3-yl)-3-(3-(3-(trifluoromethyl)phenyl)ureido)benzenesulfonamide], the IC50 fell in the range of 0.1 to 1 µM.

`CC(C)NS(=O)(=O)c1ccc(-c2ccsc2)c(NC(=O)Nc2cccc(C(F)(F)F)c2)c1` [Compound 115, N-isopropyl-4-(thiophen-3-yl)-3-(3-(3-(trifluoromethyl)phenyl)ureido)benzenesulfonamide]: the IC50 fell in the range of 0.1 to 1 µM.

With `CC(C)CNS(=O)(=O)c1ccc(-c2ccsc2)c(NC(=O)Nc2cccc(C(F)(F)F)c2)c1` [Compound 116, N-isobutyl-4-(thiophen-3-yl)-3-(3-(3-(trifluoromethyl)phenyl)ureido)benzenesulfonamide], the IC50 is 0.1 to 1 µM.

Regarding `CCC(C)NS(=O)(=O)c1ccc(-c2ccsc2)c(NC(=O)Nc2cccc(C(F)(F)F)c2)c1` (centres unmarked) [Compound 117, N-(sec-butyl)-4-(thiophen-3-yl)-3-(3-(3-(trifluoromethyl)phenyl)ureido)benzenesulfonamide], the IC50 was 0.1 to 1 µM.

For `CC(C)(C)NS(=O)(=O)c1ccc(-c2ccsc2)c(NC(=O)Nc2cccc(C(F)(F)F)c2)c1` [Compound 118, N-(tert-butyl)-4-(thiophen-3-yl)-3-(3-(3-(trifluoromethyl)phenyl)ureido)benzenesulfonamide], the IC50 lay in the range of 0.1 to 1 µM.

`C=CCNS(=O)(=O)c1ccc(-c2ccsc2)c(NC(=O)Nc2cccc(C(F)(F)F)c2)c1` [Compound 119, N-allyl-4-(thiophen-3-yl)-3-(3-(3-(trifluoromethyl)phenyl)ureido)benzenesulfonamide]: the IC50 was in the range of 0.1 to 1 µM.
